# Results from PMC11790914, “Chemogenomics for steroid hormone receptors (NR3)” (Communications Chemistry, 2025).
# Values joined by “and” are separate entries in the source; they are usually repeats but may differ in a detail not shown here. Equal entries are not always repeated. Where two headings read alike, the source gives them in different places.
# Legend:
# [1] = tested on: Gal4-VP16; format: cell-based; conditions: vs. DMSO ctrl, single replicates n=1-3
# [2] = target: T1, AURKA (Homo sapiens, UniProt O14965); test: Liability panel screening by DSF: AURKA; format: binding; conditions: DSF, 20 µM, n=2; read-out: Mean ΔTM AURKA
# T1 construct: made in house
# T1 sequence (O14965 1-403): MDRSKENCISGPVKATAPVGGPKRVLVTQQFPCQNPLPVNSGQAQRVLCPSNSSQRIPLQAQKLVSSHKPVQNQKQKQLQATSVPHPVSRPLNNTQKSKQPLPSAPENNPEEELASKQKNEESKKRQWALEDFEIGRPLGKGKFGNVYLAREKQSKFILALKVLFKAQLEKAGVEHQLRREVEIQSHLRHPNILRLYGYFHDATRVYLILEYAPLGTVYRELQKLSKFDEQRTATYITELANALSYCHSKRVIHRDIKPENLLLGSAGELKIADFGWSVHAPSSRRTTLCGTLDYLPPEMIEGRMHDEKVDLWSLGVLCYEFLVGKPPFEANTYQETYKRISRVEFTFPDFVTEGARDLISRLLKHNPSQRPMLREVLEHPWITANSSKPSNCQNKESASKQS
# In short: (§1)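 Recombinant protein at 2 µM in 10 mM HEPES pH 7.5 with 500 mM NaCl was mixed with SYPRO Orange (1:1000) and heated at 3 °C/min up to 85 °C. Tm was taken as the Boltzmann-fit inflection point. Shifts are ∆Tm in K from technical duplicates.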
# [3] = tested on: HEK293T cells; test: Cytotoxicity: apoptosis induction (caspase-3/7 DEVD fluorogenic DNA dye); conditions: HEK293T, 24 h; for Apoptosis induction [AI]: apoptotic cell count normalized to 0.1% DMSO, single replicates
# [4] = target: T2, TRIM24 (Homo sapiens, UniProt O15164); test: Liability panel screening by DSF: TRIM24; format: binding; conditions: DSF, 20 µM, n=2; read-out: Mean ΔTM TRIM24
# T2 construct: This panel comprised ten highly ligandable kinases and bromodomains; made in house
# T2 sequence (O15164 899-1004 limits assumed): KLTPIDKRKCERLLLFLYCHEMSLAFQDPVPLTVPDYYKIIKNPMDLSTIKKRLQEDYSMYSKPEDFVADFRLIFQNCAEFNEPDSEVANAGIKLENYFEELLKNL
# In short: as §1
# [5] = tested on: HEK293T cells; test: Cytotoxicity: necrosis induction (red fluorescent dye for permeable plasma membranes); format: cell-based; conditions: 24 h, necrotic cell count normalized to 0.1% DMSO, single replicates;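 note: compounds applied in DMEM high glucose with 0.1% FCS and 0.1% DMSO, necrotic HEK293T cells counted by red staining of cells whose plasma membranes had become permeable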
# [6] = tested on: HEK293T cells; test: Cytotoxicity: metabolic activity (WST-8 / CCK-8 assay); conditions: HEK293T, 24 h, WST-8, normalized to 0.1% DMSO, single replicates
# [7] = target: T3, BRD4 (Homo sapiens, UniProt O60885); test: Liability panel screening by DSF: BRD4; format: binding; conditions: DSF, 20 µM, n=2; read-out: Mean ΔTM BRD4
# T3 construct: This panel comprised ten highly ligandable kinases and bromodomains; made in house
# In short: as §1
# [8] = tested on: NF-κB activity in HEK293 NF-κB reporter cells; test: NF-kB activity assay (GFP reporter, ionomycin/PMA); format: cell-based; conditions: for Mean NFκB response: n=3; for NF-κB activity (inflammatory response to ionomycin/PMA): HEK293 NF-κB reporter cells, compounds at recommended concentrations, imaged over 24 h, n = 3
# In short: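 HEK293 NF-κB GFP reporter cells given compound in 0.1% DMSO for 4 h, then stimulated with ionomycin 100 ng/mL plus PMA 10 ng/mL. Imaged every 90 min over 24 h; GFP-positive cell count normalized to confluence, three independent biological replicates.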
# [9] = target: T4, MAPK1 (Homo sapiens, UniProt P28482); test: Liability panel screening by DSF: MAPK1; format: binding; conditions: DSF, 20 µM, n=2; read-out: Mean ΔTM MAPK1
# T4 construct: made in house
# In short: as §1
# [10] = target: T5, FGFR3 (Homo sapiens, UniProt P22607); test: Liability panel screening by DSF: FGFR3; format: binding; conditions: DSF, 20 µM, n=2; read-out: Mean ΔTM FGFR3
# T5 construct: made in house
# In short: as §1
# [11] = target: T6, GSK3B (Homo sapiens, UniProt P49841); test: Liability panel screening by DSF: GSK3B; format: binding; conditions: DSF, 20 µM, n=2; read-out: Mean ΔTM GSK3B
# T6 construct: made in house
# [12] = target: T7, BRPF1 (Homo sapiens, UniProt P55201); test: Liability panel screening by DSF: BRPF1; format: binding; conditions: DSF, 20 µM, n=2; read-out: Mean ΔTM BRPF1
# T7 construct: This panel comprised ten highly ligandable kinases and bromodomains; made in house
# T7 sequence (P55201 628-732 limits assumed): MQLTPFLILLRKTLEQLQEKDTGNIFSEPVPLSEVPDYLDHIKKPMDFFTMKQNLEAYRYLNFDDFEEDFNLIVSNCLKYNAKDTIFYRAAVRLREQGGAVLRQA
# In short: as §1
# [13] = target: T8, ABL1 (Homo sapiens, UniProt P00519); test: Liability panel screening by DSF: ABL1; format: binding; conditions: DSF, 20 µM, n=2; read-out: Mean ΔTM ABL1
# T8 construct: made in house
# In short: as §1
# [14] = target: T9, CSNK1D (Homo sapiens, UniProt P48730); test: Liability panel screening by DSF: CSNK1D; format: binding; conditions: DSF, 20 µM, n=2; read-out: Mean ΔTM CSNK1D
# T9 construct: made in house
# In short: as §1
# [15] = target: T10, CDK2 (Homo sapiens, UniProt P24941); test: Liability panel screening by DSF: CDK2; format: binding; conditions: DSF, 20 µM, n=2; read-out: Mean ΔTM CDK2
# T10 construct: made in house
# In short: as §1
# T5 sequence (P22607 23-806, species assumed): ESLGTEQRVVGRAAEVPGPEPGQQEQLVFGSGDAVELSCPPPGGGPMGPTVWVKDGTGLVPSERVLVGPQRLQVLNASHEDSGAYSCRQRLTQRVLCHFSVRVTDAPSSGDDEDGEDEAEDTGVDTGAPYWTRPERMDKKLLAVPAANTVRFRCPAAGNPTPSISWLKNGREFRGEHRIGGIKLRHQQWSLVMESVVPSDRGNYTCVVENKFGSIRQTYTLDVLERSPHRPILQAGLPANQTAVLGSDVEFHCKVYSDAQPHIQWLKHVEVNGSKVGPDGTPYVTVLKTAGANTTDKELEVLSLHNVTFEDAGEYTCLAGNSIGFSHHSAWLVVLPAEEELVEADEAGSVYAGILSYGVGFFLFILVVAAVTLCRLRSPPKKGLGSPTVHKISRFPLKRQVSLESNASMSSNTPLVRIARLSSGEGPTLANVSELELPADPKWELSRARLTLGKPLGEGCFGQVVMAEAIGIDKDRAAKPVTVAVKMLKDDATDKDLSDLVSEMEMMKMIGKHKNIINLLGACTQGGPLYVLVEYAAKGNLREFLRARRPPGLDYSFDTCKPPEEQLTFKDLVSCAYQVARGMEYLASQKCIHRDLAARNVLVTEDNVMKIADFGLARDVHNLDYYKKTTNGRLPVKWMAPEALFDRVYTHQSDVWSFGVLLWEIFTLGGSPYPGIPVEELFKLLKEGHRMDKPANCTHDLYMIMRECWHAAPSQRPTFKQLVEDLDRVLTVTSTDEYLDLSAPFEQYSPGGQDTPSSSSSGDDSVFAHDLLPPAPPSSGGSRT
# T6 sequence (P49841 whole entry, species assumed): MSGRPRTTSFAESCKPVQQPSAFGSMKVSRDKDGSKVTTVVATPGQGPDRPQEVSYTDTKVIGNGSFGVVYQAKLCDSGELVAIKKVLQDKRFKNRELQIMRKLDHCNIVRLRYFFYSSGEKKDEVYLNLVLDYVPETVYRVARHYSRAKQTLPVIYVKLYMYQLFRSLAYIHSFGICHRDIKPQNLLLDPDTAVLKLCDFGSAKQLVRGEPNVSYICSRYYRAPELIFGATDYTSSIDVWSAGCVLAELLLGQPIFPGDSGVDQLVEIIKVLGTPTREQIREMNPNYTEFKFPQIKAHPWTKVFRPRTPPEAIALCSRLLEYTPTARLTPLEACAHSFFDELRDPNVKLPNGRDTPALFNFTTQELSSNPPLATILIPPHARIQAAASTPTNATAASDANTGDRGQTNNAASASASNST
# T9 sequence (P48730 whole entry, species assumed): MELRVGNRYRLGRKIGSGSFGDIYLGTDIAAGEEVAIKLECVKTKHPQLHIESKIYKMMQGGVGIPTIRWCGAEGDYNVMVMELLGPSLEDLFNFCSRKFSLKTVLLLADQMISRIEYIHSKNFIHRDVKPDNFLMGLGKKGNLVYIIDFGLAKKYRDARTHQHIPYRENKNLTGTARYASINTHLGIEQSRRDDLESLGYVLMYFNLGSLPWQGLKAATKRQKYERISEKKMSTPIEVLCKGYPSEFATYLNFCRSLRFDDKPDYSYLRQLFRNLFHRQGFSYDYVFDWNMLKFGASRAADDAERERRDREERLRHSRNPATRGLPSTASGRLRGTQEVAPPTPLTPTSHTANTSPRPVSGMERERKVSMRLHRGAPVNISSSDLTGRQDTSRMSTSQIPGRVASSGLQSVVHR
# T8 sequence (P00519 whole entry, species assumed): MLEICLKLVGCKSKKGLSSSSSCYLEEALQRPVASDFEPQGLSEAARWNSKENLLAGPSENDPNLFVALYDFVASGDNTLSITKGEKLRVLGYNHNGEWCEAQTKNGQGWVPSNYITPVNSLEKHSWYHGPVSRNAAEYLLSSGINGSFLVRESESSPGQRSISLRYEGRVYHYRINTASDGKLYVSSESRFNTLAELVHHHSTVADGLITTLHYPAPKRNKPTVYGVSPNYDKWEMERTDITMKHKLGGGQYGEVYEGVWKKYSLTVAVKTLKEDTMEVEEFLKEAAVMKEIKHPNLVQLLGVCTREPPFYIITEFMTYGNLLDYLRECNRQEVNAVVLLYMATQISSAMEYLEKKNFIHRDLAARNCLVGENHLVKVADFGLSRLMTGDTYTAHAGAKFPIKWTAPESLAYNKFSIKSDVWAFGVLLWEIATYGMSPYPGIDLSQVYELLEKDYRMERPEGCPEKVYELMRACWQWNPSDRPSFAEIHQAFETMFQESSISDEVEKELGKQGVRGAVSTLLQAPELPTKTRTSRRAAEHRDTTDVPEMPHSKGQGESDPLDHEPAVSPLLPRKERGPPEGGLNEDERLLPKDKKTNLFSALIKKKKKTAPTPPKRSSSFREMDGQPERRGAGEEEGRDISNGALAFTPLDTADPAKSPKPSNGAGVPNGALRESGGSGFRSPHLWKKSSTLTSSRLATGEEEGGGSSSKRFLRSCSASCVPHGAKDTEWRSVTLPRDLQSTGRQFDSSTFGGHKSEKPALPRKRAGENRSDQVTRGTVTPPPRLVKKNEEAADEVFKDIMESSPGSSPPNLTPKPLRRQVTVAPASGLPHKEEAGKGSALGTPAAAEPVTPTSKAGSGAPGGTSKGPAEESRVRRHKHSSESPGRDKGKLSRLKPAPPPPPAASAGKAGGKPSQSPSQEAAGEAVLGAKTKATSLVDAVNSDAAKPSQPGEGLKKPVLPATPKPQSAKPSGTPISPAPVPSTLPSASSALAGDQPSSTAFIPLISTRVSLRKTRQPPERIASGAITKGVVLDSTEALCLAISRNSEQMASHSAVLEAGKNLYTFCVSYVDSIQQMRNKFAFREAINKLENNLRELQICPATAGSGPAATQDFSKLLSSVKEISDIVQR
# T4 sequence (P28482 whole entry, species assumed): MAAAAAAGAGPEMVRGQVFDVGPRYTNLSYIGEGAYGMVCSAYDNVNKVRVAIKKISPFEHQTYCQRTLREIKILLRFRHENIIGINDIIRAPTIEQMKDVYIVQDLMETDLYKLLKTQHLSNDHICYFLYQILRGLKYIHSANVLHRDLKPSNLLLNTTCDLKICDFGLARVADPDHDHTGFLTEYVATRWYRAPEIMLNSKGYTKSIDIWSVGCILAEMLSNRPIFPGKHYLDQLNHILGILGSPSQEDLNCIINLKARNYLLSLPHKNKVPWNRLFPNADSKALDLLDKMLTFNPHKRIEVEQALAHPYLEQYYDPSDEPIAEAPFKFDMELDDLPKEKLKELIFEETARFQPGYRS
Compound,VP16 control [fold reporter gene activity] ([1]; 1 µM),ΔTm at 20 µM [2],Apoptosis induction [AI] ([3]; 1 µM),ΔTm at 20 µM [4],Necrosis induction [NI] ([5]; 1 µM),Metabolic activity [MA] ([6]; 1 µM),ΔTm at 20 µM [7],"Mean NFκB response ([8]; 1 µM, 1,5 h)","Mean NFκB response ([8]; 1 µM, 4,5 h)","Mean NFκB response ([8]; 1 µM, 7,5 h)","Mean NFκB response ([8]; 1 µM, 10,5 h)","Mean NFκB response ([8]; 1 µM, 13,5 h)","Mean NFκB response ([8]; 1 µM, 16,6 h)",ΔTm at 20 µM [9],ΔTm at 20 µM [10],ΔTm at 20 µM [11],ΔTm at 20 µM [12],ΔTm at 20 µM [13],ΔTm at 20 µM [14],ΔTm at 20 µM [15],other results
C[C@@H]1Cc2c([nH]c3ccccc23)[C@@H](c2c(F)cc(/C=C/C(=O)O)cc2F)N1CC(C)(C)F [AZD9496],1.31 fold reporter gene activity and 1.10 fold reporter gene activity and 1.59 fold reporter gene activity,-0.16 °C,0.64 and 1.56 and 0.90 and 1.15 and 1.90 and 3.05,-0.62 °C,1.09 and 0.96 and 0.78 and 2.03,1.04 (3×) and 1.02 and 0.97 and 0.99 and 1.00 (2×),0.36 °C,3183.32 GFP+-cells/confluence ∙ 1000,3743.71 GFP+-cells/confluence ∙ 1000,6968.05 GFP+-cells/confluence ∙ 1000,12962.04 GFP+-cells/confluence ∙ 1000,18218.90 GFP+-cells/confluence ∙ 1000,22070.92 GFP+-cells/confluence ∙ 1000,0.55 °C,0.58 °C,0 °C,-4.53 °C,-0.24 °C,0.64 °C,-0.07 °C,"apoptosis induction ([3]; budesonide (3 µM), others at tested concentration): slight apoptosis induction; Mean NFκB response ([8]; 1 µM, 19,5 h): 24828.05 GFP+-cells/confluence ∙ 1000; Mean NFκB response ([8]; 1 µM, 22,5 h): 27011.69 GFP+-cells/confluence ∙ 1000; Mean NFκB response ([8]; 1 µM, 3 h): 3319.11 GFP+-cells/confluence ∙ 1000; Mean NFκB response ([8]; 1 µM, 6 h): 4897.81 GFP+-cells/confluence ∙ 1000; Mean NFκB response ([8]; 1 µM, 9 h): 10141.67 GFP+-cells/confluence ∙ 1000; Mean NFκB response ([8]; 1 µM, 12 h): 15818.86 GFP+-cells/confluence ∙ 1000; Mean NFκB response ([8]; 1 µM, 15 h): 20214.01 GFP+-cells/confluence ∙ 1000; Mean NFκB response ([8]; 1 µM, 18 h): 23720.26 GFP+-cells/confluence ∙ 1000; Mean NFκB response ([8]; 1 µM, 21 h): 26076.44 GFP+-cells/confluence ∙ 1000; Mean NFκB response ([8]; 1 µM, 24 h): 27738.19 GFP+-cells/confluence ∙ 1000; NF-κB activity (inflammatory response to ionomycin/PMA) [8]: reducing the inflammatory response"
CCN(CC)c1ccc(/C=N/NC(=O)c2ccc(O)cc2)cc1 [DY131],,-2.05 °C,,-3.28 °C,,,-0.92 °C,,,,,,,0.23 °C,0.00876 °C,-0.28 °C,1.09 °C,0.66 °C,-0.0354 °C,0.35 °C,"VP16 control [fold reporter gene activity] ([1]; 3 µM): 1.12 fold reporter gene activity and 1.24 fold reporter gene activity and 1.20 fold reporter gene activity; Apoptosis induction [AI] ([3]; 3 µM): -15.91 and -17.65 and -9.63 and -8.53 and 1.25 and 1.40; Necrosis induction [NI] ([5]; 3 µM): 0.73 and 0.89 and 0.91 and 0.92; Metabolic activity [MA] ([6]; 3 µM): 0.98 and 0.95 (2×) and 0.82 and 0.96 and 0.93 and 0.87 and 0.92; Mean NFκB response ([8]; 3 µM, 1,5 h): 3734.45 GFP+-cells/confluence ∙ 1000; Mean NFκB response ([8]; 3 µM, 4,5 h): 4226.03 GFP+-cells/confluence ∙ 1000; Mean NFκB response ([8]; 3 µM, 7,5 h): 9363.33 GFP+-cells/confluence ∙ 1000; Mean NFκB response ([8]; 3 µM, 10,5 h): 20103.33 GFP+-cells/confluence ∙ 1000; Mean NFκB response ([8]; 3 µM, 13,5 h): 29726.67 GFP+-cells/confluence ∙ 1000; Mean NFκB response ([8]; 3 µM, 16,6 h): 36476.67 GFP+-cells/confluence ∙ 1000; Mean NFκB response ([8]; 3 µM, 19,5 h): 41143.33 GFP+-cells/confluence ∙ 1000; Mean NFκB response ([8]; 3 µM, 22,5 h): 44036.67 GFP+-cells/confluence ∙ 1000; Mean NFκB response ([8]; 3 µM, 3 h): 4084.29 GFP+-cells/confluence ∙ 1000; Mean NFκB response ([8]; 3 µM, 6 h): 5799.09 GFP+-cells/confluence ∙ 1000; Mean NFκB response ([8]; 3 µM, 9 h): 14733.33 GFP+-cells/confluence ∙ 1000; Mean NFκB response ([8]; 3 µM, 12 h): 25326.67 GFP+-cells/confluence ∙ 1000; Mean NFκB response ([8]; 3 µM, 15 h): 33133.33 GFP+-cells/confluence ∙ 1000; Mean NFκB response ([8]; 3 µM, 18 h): 38383.33 GFP+-cells/confluence ∙ 1000; Mean NFκB response ([8]; 3 µM, 21 h): 42820.00 GFP+-cells/confluence ∙ 1000; Mean NFκB response ([8]; 3 µM, 24 h): 45096.67 GFP+-cells/confluence ∙ 1000"
Cc1ccc2c(NC[C@](O)(CC(C)(C)c3cc(F)cc4c3OCC4)C(F)(F)F)cccc2n1 [Mapracorat],0.84 fold reporter gene activity and 0.88 fold reporter gene activity and 1.01 fold reporter gene activity,-0.69 °C,-0.37 and -0.27 and 0.87 and 1.32 and 1.12 and 1.57,-0.84 °C,1.18 and 1.03 and 0.88 and 0.99,1.04 and 1.02 (2×) and 0.95 and 0.98 (2×) and 0.94 and 1.03,-0.11 °C,2171.23 GFP+-cells/confluence ∙ 1000,3001.35 GFP+-cells/confluence ∙ 1000,6252.60 GFP+-cells/confluence ∙ 1000,12057.95 GFP+-cells/confluence ∙ 1000,15815.67 GFP+-cells/confluence ∙ 1000,19330.00 GFP+-cells/confluence ∙ 1000,-0.47 °C,-1.28 °C,-0.25 °C,0.63 °C,0.24 °C,-0.78 °C,-0.17 °C,"Mean NFκB response ([8]; 1 µM, 19,5 h): 21866.67 GFP+-cells/confluence ∙ 1000; Mean NFκB response ([8]; 1 µM, 22,5 h): 23846.67 GFP+-cells/confluence ∙ 1000; Mean NFκB response ([8]; 1 µM, 3 h): 2434.19 GFP+-cells/confluence ∙ 1000; Mean NFκB response ([8]; 1 µM, 6 h): 4081.73 GFP+-cells/confluence ∙ 1000; Mean NFκB response ([8]; 1 µM, 9 h): 9170.03 GFP+-cells/confluence ∙ 1000; Mean NFκB response ([8]; 1 µM, 12 h): 13883.00 GFP+-cells/confluence ∙ 1000; Mean NFκB response ([8]; 1 µM, 15 h): 17560.00 GFP+-cells/confluence ∙ 1000; Mean NFκB response ([8]; 1 µM, 18 h): 20616.67 GFP+-cells/confluence ∙ 1000; Mean NFκB response ([8]; 1 µM, 21 h): 23216.67 GFP+-cells/confluence ∙ 1000; Mean NFκB response ([8]; 1 µM, 24 h): 25073.33 GFP+-cells/confluence ∙ 1000; NF-κB activity (inflammatory response to ionomycin/PMA) [8]: consistently delayed and strongly diminished NF-κB activity"
